PMC12062022, “Chromene flavanones from Dalea boliviana as xanthine oxidase inhibitors: in vitro biological evaluation and molecular docking studies” (Frontiers in Pharmacology, 2025)

Molecular target: T1, xanthine oxidase (Bos taurus, UniProt P80457)
T1 construct: gene XDH
Assay: spectrophotometric assay of uric acid formation at […] nm, bovine milk enzyme
Assay type: biochemical
Conditions: read-out: IC50 (nM) ± SEM

T1 sequence (P80457 2-1332): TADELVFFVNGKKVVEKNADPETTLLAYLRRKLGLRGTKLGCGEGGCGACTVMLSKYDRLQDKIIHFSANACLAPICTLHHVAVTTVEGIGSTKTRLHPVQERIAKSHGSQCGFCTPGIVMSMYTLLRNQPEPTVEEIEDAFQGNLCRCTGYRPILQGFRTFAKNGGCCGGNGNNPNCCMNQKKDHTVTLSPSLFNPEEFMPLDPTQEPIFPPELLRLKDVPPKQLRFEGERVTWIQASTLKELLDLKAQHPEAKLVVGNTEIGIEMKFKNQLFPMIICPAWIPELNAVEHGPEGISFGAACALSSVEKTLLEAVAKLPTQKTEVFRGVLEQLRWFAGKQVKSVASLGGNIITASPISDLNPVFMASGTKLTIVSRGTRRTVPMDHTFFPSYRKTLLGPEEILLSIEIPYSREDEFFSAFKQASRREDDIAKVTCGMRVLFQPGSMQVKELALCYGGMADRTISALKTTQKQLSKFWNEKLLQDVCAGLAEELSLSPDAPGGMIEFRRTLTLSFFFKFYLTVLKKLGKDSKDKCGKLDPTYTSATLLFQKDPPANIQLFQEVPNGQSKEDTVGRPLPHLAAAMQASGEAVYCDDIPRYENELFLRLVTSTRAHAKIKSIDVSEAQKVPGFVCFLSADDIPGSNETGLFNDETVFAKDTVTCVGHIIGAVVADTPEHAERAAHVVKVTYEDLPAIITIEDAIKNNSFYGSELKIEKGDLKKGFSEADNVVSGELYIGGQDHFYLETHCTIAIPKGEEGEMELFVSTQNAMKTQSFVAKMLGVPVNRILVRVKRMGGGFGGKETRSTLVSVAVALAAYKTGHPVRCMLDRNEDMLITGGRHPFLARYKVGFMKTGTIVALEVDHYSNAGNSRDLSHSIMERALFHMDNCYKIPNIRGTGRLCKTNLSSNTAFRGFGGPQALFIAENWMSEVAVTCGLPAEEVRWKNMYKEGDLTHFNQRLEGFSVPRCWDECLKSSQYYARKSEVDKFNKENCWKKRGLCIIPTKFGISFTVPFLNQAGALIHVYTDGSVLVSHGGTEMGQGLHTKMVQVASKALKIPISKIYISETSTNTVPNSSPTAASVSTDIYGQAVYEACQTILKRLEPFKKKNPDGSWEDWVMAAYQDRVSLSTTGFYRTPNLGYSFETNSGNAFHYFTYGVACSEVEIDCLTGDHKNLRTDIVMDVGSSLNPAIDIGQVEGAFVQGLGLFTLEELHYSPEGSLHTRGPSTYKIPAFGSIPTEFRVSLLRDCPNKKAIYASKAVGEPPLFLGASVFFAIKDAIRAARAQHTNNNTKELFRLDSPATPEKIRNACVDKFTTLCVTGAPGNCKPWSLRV

IC50	Structure (SMILES)
1.7 nM	CC(C)=CCc1cccc(C2CC(=O)c3c(O)cc4c(c3O2)C=CC(C)(C)O4)c1O (stereo in doubt) [compound 2, (2S) 5,2′-dihydroxy-6″,6″-dimethylchromeno-(7,8:2″,3″)-3′-prenylflavanone]
0.5 nM	CC1(C)C=Cc2c(cc(O)c3c2OC(c2ccccc2O)CC3=O)O1 (stereo in doubt) [compound 1, (2S) 5,2′-dihydroxy-6″,6″-dimethylchromeno-(7,8:2″,3″)-flavanone]
